The source of these data is paper PMC11171525 (Cells, 2024).

Like-named read-outs stand apart in the source and are kept apart here.

The test system of assay [1] is PpCM2. Description: CM activity assay, recombinant PpCM2 (disappearance of chorismate at 274 nm). The class given is biochemical, Pinus pinaster. As to conditions: for impact on activity (activation or inhibition), effector screening: threshold […] (Figure S2). The protocol:
(§1) Similarly, the effect on CM activity of decreasing concentrations of the amino acids Phe, Tyr, and Trp was determined.
(§2) To study their catalytic properties, P. pinaster PpCM1 and PpCM2 were functionally expressed in E. coli, including N-terminal His-tags, lacking the predicted chloroplast signal peptides, and were subsequently purified with Ni^2+-affinity chromatography.

Assay [2] concerns PpCM1. Description: CM activity assay, recombinant PpCM1 (disappearance of chorismate at 274 nm). As to conditions: for impact on activity (activation or inhibition), effector screening: threshold […] (Figure S2). Type of assay: biochemical, Pinus pinaster. On the procedure:
as §1, §2

For assay [3], the system named is CMs from mosses. The note with it: substrate chorismate; ref [30]; cited from earlier work.
The subject of assay [4] is CMs from lycophytes. As to conditions: substrate chorismate; ref [30]; cited from earlier work.
The mark [5] stands for this setting: 2 mM amino acid, 1 mM chorismate.
Setting [6] is: inhibition of CM activity by Phe, read-out: EC50 (Phe).
Setting [7] is: activation of CM activity by Trp, read-out: EC50 (Trp).
Setting [8] is: substrate chorismate, 50 mM Tris pH 8, 30 °C.
The mark [9] stands for this setting: substrate chorismate, turnover rate.

Consider `N[C@@H](Cc1ccccc1)C(=O)O` [Phe, phenylalanine], for which the “reduction in activity compared to controls” value in assay [1] (setting [5]) came to 3 fold; in assay [2] (setting [5]), 9.6 fold. Besides, the “impact on activity (activation or inhibition), effector screening” value in assay [1] (2 mM amino acid) and in assay [2] (2 mM amino acid) was greater than 1.5 fold throughout. Besides, in assay [1] (in the presence of 2 mM Phe), the retained activity is given as 30–35%. The EC50 (as a rule, the concentration that produces a half-maximal response) in assay [1] (setting [6]) is 88 µM; in assay [2] (setting [6]), 36 µM.
Regarding `N[C@@H](Cc1c[nH]c2ccccc12)C(=O)O` [Trp, tryptophan], the figures for the increase in activity in assay [1] (setting [5]) and in assay [2] (setting [5]) were 1.7 fold and 3.1 fold, respectively. Also, the “impact on activity (activation or inhibition), effector screening” value in assay [1] (2 mM amino acid) and in assay [2] (2 mM amino acid) was greater than 1.5 fold throughout. Further, the EC50 in assay [1] (setting [7]) and in assay [2] (setting [7]) was roughly 0.1 µM each time.
`N[C@@H](Cc1ccc(O)cc1)C(=O)O` [Tyr, tyrosine]: the “reduction in activity compared to controls” value amounted to 10.1 fold in assay [1] (setting [5]) and 11.4 fold in assay [2] (setting [5]). For the same molecule, the “impact on activity (activation or inhibition), effector screening” value in assay [1] (2 mM amino acid) and in assay [2] (2 mM amino acid) was greater than 1.5 fold in each case.
Regarding `C=C(O[C@@H]1C=C(C(=O)O)C=C[C@H]1O)C(=O)O` [chorismate], the Kcat was 19.5 to 20.7 s⁻¹ in assay [3], 35 s⁻¹ in assay [1] (setting [9]), 18.8 s⁻¹ in assay [4] and 29.4 s⁻¹ in assay [2] (setting [9]). Besides, the Km (in general, the substrate concentration at which the rate is half of its maximum) in assay [1] (setting [8]) amounted to 1.7 mM; in assay [2] (setting [8]), 1.6 mM.
